{
  "source": "patent US6610716B2",
  "about": "“Cyanomethyl substituted thiazoliums and imidazoliums and treatments of disorders associated with protein aging” (Alteon Incorporated, priority 2000, dated 2003)",
  "key": {"TGFbeta": {"system": "TGFbeta", "experiment": "In situ hybridization studies", "format": "in vivo", "text": "(§1) Cardiovascular risk correlates more closely with the systolic and the pulse pressure than with the diastolic pressure. In diabetic patients, the cardiovascular risk profile of diabetic patients is strongly correlated to duration of diabetes, glycemic control and blood pressure. Structural matrix proteins contribute to the function of vessels and the heart, and changes in the physical behavior of cardiovascular walls are believed to be important determinants of circulatory function. In elderly individuals, the loss of compliance in the aorta leads to isolated systolic hypertension, which in turn expands the arterial wall and thereby diminishes the dynamic range of elasticity. […] Treatment with 3-[2-phenyl-2-oxoethyl]-4,5-dimethyl-thiazolium salt lead to a reduction in the mass of collagen in cardiovascular tissues."}, "Type IV collagen": {"system": "Type IV collagen", "experiment": "In situ hybridization studies", "format": "in vivo", "text": "as §1"}, "[1]": {"experiment": "In vivo studies of vascular stiffening and cardiovascular collagen", "design": "species or system rodents, canines and primates", "text": "as §1"}, "Phase Ia clinical trial": {"experiment": "Phase Ia clinical trial", "format": "in vivo, human", "text": "When the heart pumps blood into the vascular system, the ability of the arteries to expand helps to push blood through the body. When arteries become stiff, as they do in the natural process of aging. the ability of the arteries to expand is diminished and also has consequences for the heart. The heart has to work harder to pump the blood into the stiff arteries, and eventually hypertrophies (enlarges in size) to accomplish this. A hypertrophied heart is an inefficient pump, and is one of the disorders that leads to congestive heart failure. […] The potential clinical benefit of this is to lessen the effort that the heart must expend to push blood throughout the body. The effect is also believed to contribute to preventing hypertrophy and subsequent inefficiency of the heart, which inefficiency would contribute to congestive heart failure.\nAtherosclerosis is a disease that involves deposition of blood lipids in plaque in the arteries throughout the body. In coronary arteries, accumulation of plaque progressively leads to reduced coronary flow, with occlusion of the arteries causing focal death of cardiac tissue (myocardial infarction, heart attack). If the amount of tissue that dies is large enough, death ensures. In a Phase Ia trial, one compound believed to work by a mechanism shared by the compounds of the invention, 3-[2-phenyl-2-oxoethyl]-4,5-dimethyl-thiazolium salt, […] the amount of circulating triglycerides (lipids). […] Reducing local deposits of plaque should eventually lessen the risk of myocardial infarction and death due to heart attacks.\nPulse pressure is the difference between systolic and diastolic blood pressure. In a young human, systolic pressure is typically 120 mm Hg and diastolic pressure is 80 mm Hg, resulting in a pulse pressure of 40 mm Hg. With age, in many individuals pulse pressure increases, largely due to the increase in systolic pressure that results from stiff vessel disease. In individuals with pulse pressure greater than 60 mm Hg there is an increased risk of death from cardiovascular morbidities."}, "[2]": {"experiment": "Dog model for diabetes, indicators of ventricular elasticity", "format": "in vivo", "text": "as §1"}, "red blood cells": {"system": "red blood cells", "conditions": "in vivo; cited from earlier work"}, "[3]": {"conditions": "diabetic rats; cited from earlier work"}, "[4]": {"conditions": "streptozotocin-diabetic rat model; cited from earlier work"}, "[5]": {"conditions": "in vivo; cited from earlier work"}, "[6]": {"conditions": "use of chlorhexidine; cited from earlier work"}},
  "note": "Counter-ions that a name gives are not always drawn.",
  "data": [
    {"smiles": "Cc1sc[n+](CC#N)c1C.[Br-]", "values": [
      {"measurement": "melting point", "value": "184 to 186 °C (dec.)"}
    ]},
    {"smiles": "N#CC[n+]1csc2c1CCCC2.[Br-]", "values": [
      {"measurement": "melting point", "value": "215 to 217 °C (dec.)"}
    ]},
    {"smiles": "Cc1sc[n+](CC(=O)c2ccccc2)c1C", "note": "[3-[2-phenyl-2-oxoethyl]-4,5-dimethyl-thiazolium salt]", "values": [
      {"measurement": "expression of TGFbeta", "setting": "TGFbeta", "value": "reduces the expression"},
      {"measurement": "expression of Type IV collagen", "setting": "Type IV collagen", "value": "reduces the expression"},
      {"measurement": "mass of collagen in cardiovascular tissues", "setting": "[1]; in vivo", "value": "reduction"},
      {"measurement": "vascular stiffening", "setting": "[1]; in vivo studies in rodents, canines and primates", "value": "substantially ameliorating vascular stiffening"},
      {"measurement": "stiffness of arteries, as measured by the ratio of stroke volume (ml) to pulse pressure (mm Hg)", "setting": "Phase Ia clinical trial; Phase Ia clinical trial", "value": "reverse the stiffness of arteries"},
      {"measurement": "amount of circulating triglycerides (lipids)", "setting": "Phase Ia clinical trial; Phase Ia trial", "value": "increased"},
      {"measurement": "systolic blood pressure", "setting": "Phase Ia clinical trial; Phase Ia trial, believed primary cause of the pulse pressure decrease", "value": "lowering the systolic blood pressure"},
      {"measurement": "pulse pressure", "setting": "Phase Ia clinical trial; Phase Ia trial, elderly patients with pulse pressures greater than 60 mm Hg, statistically significant", "value": "reduced pulse pressure"},
      {"measurement": "end diastolic pressure", "setting": "[2]", "value": "returned to a value at about the mid-point between the disease impaired value and the value for control dogs"},
      {"measurement": "end diastolic volume", "setting": "[2]", "value": "returned to a value at about the mid-point between the disease impaired value and the value for control dogs"}
    ]},
    {"smiles": "N=C(N)NN", "note": "[aminoguanidine]", "values": [
      {"measurement": "diabetes-induced changes in the deformability of red blood cells", "setting": "red blood cells", "value": "prevent, treat or reverse such changes"},
      {"measurement": "aortic wall protein cross-linking", "setting": "[3]", "value": "diminishes"},
      {"measurement": "increased glomerular basement membrane thickness", "setting": "[4]", "value": "prevented"},
      {"measurement": "immunoglobulin trapping in the kidney", "setting": "[5]", "value": "reduction"}
    ]},
    {"smiles": "[H]/N=C(\\N/C(=N/[H])NCCCCCCNC(=N)NC(=N)Nc1ccc(Cl)cc1)Nc1ccc(Cl)cc1", "note": "[chlorhexidine]", "values": [
      {"measurement": "dental pellicle", "setting": "[6]", "value": "increased dental pellicle"}
    ]}
  ]
}
